Test results from the supplement of paper PMC10307832.

Columns and labels:
Assay in all cases: relative viability (nuclei count vs DMSO), 5 days (fraction); higher = more cells survive
[1] = compound: CN(C)CC1=CC(=CC=C1)N=C(C2=CC=CC=C2)C3=C(NC4=C3C=CC(=C4)C(=O)N(C)C)O + CC(C)C[C@H](NC(=O)[C@H](Cc1ccccc1)NC(=O)c1cnccn1)B(O)O [Bortezomib] (partner 0.002 µM)
Procedure, shortened: (§1)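 Nuclei were stained with Hoechst during a one-step fixation (final 0.05% Triton X-100, 1% formaldehyde, 1 ug/ml Hoechst) carried out 5 days after dosing, then counted on 4× images. The cells, lung cancer lines in 1536-well plates, had been dosed by pin tool the day after seeding with one drug alone or a fixed anchor-drug dose plus five library-drug doses (not always all listed) in √10 steps. Relative viability is the nuclei count in treated wells divided by that in vehicle wells, and each value is the median of duplicate plates.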

[2] = compound: CN(C)CC1=CC(=CC=C1)N=C(C2=CC=CC=C2)C3=C(NC4=C3C=CC(=C4)C(=O)N(C)C)O + CCNC(=O)c1noc(-c2cc(C(C)C)c(O)cc2O)c1-c1ccc(CN2CCOCC2)cc1 [Luminespib] (partner 0.01 µM)
Procedure, shortened: as §1

[3] = compound: CN(C)CC1=CC(=CC=C1)N=C(C2=CC=CC=C2)C3=C(NC4=C3C=CC(=C4)C(=O)N(C)C)O + Cc1nc(Nc2ncc(C(=O)Nc3c(C)cccc3Cl)s2)cc(N2CCN(CCO)CC2)n1 [Dasatinib] (partner 0.075 µM)
Procedure, shortened: as §1

[4] = compound: CN(C)CC1=CC(=CC=C1)N=C(C2=CC=CC=C2)C3=C(NC4=C3C=CC(=C4)C(=O)N(C)C)O + CC(=O)c1c(C)c2cnc(Nc3ccc(N4CCNCC4)cn3)nc2n(C2CCCC2)c1=O [Palbociclib] (partner 0.5 µM)
Procedure, shortened: as §1

Cell Line	relative viability ([1]; first compound 0.08 µM)	relative viability ([1]; first compound 0.253 µM)	relative viability ([1]; first compound 0.8 µM)	relative viability ([1]; first compound 2.53 µM)	relative viability ([1]; first compound 8 µM)	relative viability ([2]; first compound 0.08 µM)	relative viability ([2]; first compound 0.253 µM)	relative viability ([2]; first compound 0.8 µM)	relative viability ([2]; first compound 2.53 µM)	relative viability ([2]; first compound 8 µM)	relative viability ([3]; first compound 0.08 µM)	relative viability ([3]; first compound 0.253 µM)	relative viability ([3]; first compound 0.8 µM)	relative viability ([3]; first compound 2.53 µM)	relative viability ([3]; first compound 8 µM)	relative viability ([4]; first compound 0.08 µM)	relative viability ([4]; first compound 0.253 µM)	relative viability ([4]; first compound 0.8 µM)	relative viability ([4]; first compound 2.53 µM)	relative viability ([4]; first compound 8 µM)
NCI-H838	0.792	0.8	0.916	0.757	0.73	0.386	0.355	0.254	0.331	0.341	0.304	0.304	0.247	0.281	0.284	0.253	0.243	0.199	0.198	0.177
NCI-H2023	1.3	1.05	0.901	0.647	0.731	0.75	0.75	0.769	0.577	0.483	0.538	0.549	0.576	0.445	0.466	0.332	0.325	0.357	0.289	0.36
NCI-H1650	0.181	0.22	0.231	0.202	0.222	0.194	0.202	0.227	0.199	0.186	0.286	0.383	0.351	0.376	0.335	0.36	0.399	0.331	0.314	0.364
201T	1.13	1.15	1.08	1.06	0.994	1.06	0.993	1.01	1.05	0.802	0.544	0.603	0.575	0.54	0.493	0.331	0.346	0.341	0.384	0.352
NCI-H1666	0.865	0.945	0.989	0.976	0.816	1.02	1.02	1.08	1.01	1.02	0.826	0.836	0.907	0.747	0.843	0.617	0.652	0.684	0.681	0.73
LXF-289	1	0.888	0.993	0.927	0.939	0.694	0.675	0.6	0.652	0.623	0.203	0.216	0.246	0.242	0.205	0.603	0.544	0.606	0.547	0.568
LC-2-ad	1.08	1.1	1.03	0.979	0.995	1.01	0.894	1.06	0.863	0.973	0.697	0.593	0.751	0.409	0.44	0.404	0.512	0.475	0.456	0.486
LCLC-103H	1.14	1.09	0.976	0.91	0.979	0.948	0.959	1.07	0.926	0.863	0.482	0.487	0.435	0.42	0.497	0.255	0.425	0.558	0.449	0.458
NCI-H1993	1.04	1.11	0.748	1.22	1.36	0.817	0.796	0.748	0.939	0.924	0.505	0.602	0.512	0.607	0.729	0.63	0.615	–	0.75	0.592
NCI-H441	0.572	0.449	0.538	0.511	0.331	0.303	0.304	0.364	0.381	0.354	0.521	0.68	0.529	0.582	0.505	0.217	0.231	0.2	0.198	0.247
EKVX	1	1	1.01	0.962	1.06	0.864	0.921	1	0.927	1.06	0.523	0.465	0.56	0.535	0.573	0.392	0.385	–	0.373	0.42
NCI-H1437	0.462	0.63	0.615	0.482	0.56	1.12	1.14	1.2	1.06	1.2	0.393	0.402	0.392	0.336	0.416	0.339	0.365	0.317	0.331	0.368
PC-3 [JPC-3]	0.856	0.826	0.759	0.886	0.866	0.705	0.69	0.707	0.751	0.695	1.01	1.03	0.911	0.914	0.992	0.543	0.573	0.534	0.557	0.602
NCI-H650	0.695	0.993	0.767	0.717	0.661	0.843	0.777	0.872	0.667	0.861	0.521	0.487	0.447	0.461	0.447	0.319	0.371	0.387	0.355	0.364
UMC-11	0.744	0.645	0.725	0.577	0.698	0.982	0.941	1.08	0.974	0.821	0.507	0.414	0.45	0.445	0.407	0.351	0.311	0.326	0.306	0.291
NCI-H520	0.593	0.455	0.651	0.658	0.552	0.218	0.197	0.239	0.221	0.236	0.189	0.197	0.183	0.162	0.165	0.234	0.2	0.214	0.195	0.173
NCI-H727	0.872	0.764	0.786	0.739	0.764	0.245	0.377	0.296	0.543	0.354	0.357	0.374	0.382	0.54	0.509	–	0.617	0.593	0.391	0.74
NCI-H1975	0.444	0.381	0.319	0.326	0.381	0.22	0.197	0.0911	0.324	0.161	0.372	0.364	0.341	0.348	0.31	0.646	0.398	0.456	0.574	0.339
ChaGo-K-1	0.986	1.1	1.03	–	1.12	0.688	0.612	0.668	0.529	0.598	0.579	0.61	0.601	0.567	0.582	0.918	0.905	0.971	0.94	0.839
CAL-12T	–	1.02	1.03	–	1.08	0.27	0.451	0.877	0.542	0.376	0.488	0.48	0.421	0.363	0.304	0.436	0.431	0.208	0.524	0.43
NCI-H3122	0.984	0.99	1.06	0.959	0.98	0.0882	0.0788	0.075	0.142	0.0907	0.686	0.867	0.846	0.844	0.951	0.17	0.15	0.204	0.17	0.226
LU99A	1.13	1.21	1.15	1.09	0.911	0.238	0.246	0.285	0.258	0.234	0.578	0.646	0.611	0.401	0.373	0.392	0.417	0.457	0.401	0.351
EPLC-272H	0.949	1.16	0.903	1.02	1.15	0.309	0.363	0.239	0.308	0.211	0.419	0.334	0.304	0.382	0.357	0.309	0.35	0.269	0.357	0.301
NCI-H2009	1.17	1.01	1.21	0.919	0.839	1.04	0.999	1.11	0.96	1.05	0.238	0.328	0.349	0.333	0.253	0.165	0.236	0.258	0.198	0.192
BEN	0.951	0.679	0.794	0.876	0.717	0.338	0.269	0.312	0.212	0.437	0.307	0.284	0.396	0.487	0.336	0.49	0.485	0.492	0.467	0.454
NCI-H1755	0.888	0.932	0.93	0.817	0.972	0.472	0.413	0.422	0.351	0.454	0.487	0.45	0.374	0.402	0.348	0.438	0.45	0.426	0.452	0.439
NCI-H2405	0.976	1.02	0.976	0.954	0.951	0.992	0.652	0.681	0.614	0.552	0.206	0.222	0.237	0.204	0.183	0.545	0.562	0.513	0.467	0.478
